Data on 19 molecules can be found in patent publication US12497365B2, “4-pyridinyl formamide compound or derivative thereof, preparation method therefor, herbicidal composition and use thereof” (Qingdao Kingagroot Chemical Compound Co., Ltd., priority 2019, dated 2025).

Holding throughout (experiment): Weeding effect in post-emergence stage
Common to all, as to type: in vivo
Common to all, as to conditions: active ingredient 2000 g/ha, 3 weeks after application, fresh weight control rate

In one assay the test system is Chenopodium album. The method, boiled down:
(§1)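 Post-emergence spray, 2-3 leaf stage; acetone/Tween 80 formulation + methyl oleate EC synergist (1.5 liter/ha); 125-2000 g/ha via spray tower. Greenhouse, 3 wk. Read-out: fresh weight growth control rate, graded by activity level.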

The test system of assay [1] is Amaranthus retroflexus L. The method, boiled down: as §1
Another assay concerns Abutilon theophrasti. The method, boiled down:
as §1

A further assay deals with Descurainia sophia. The method, boiled down:
as §1

Regarding `Cc1ccc(-c2nccc(C(=O)Nc3nnnn3C)c2Cl)cc1` [Compound 1-11], the “Weeding effect, activity level (growth control rate), Chenopodium album” value (“Weeding effect … Chenopodium album” below) in the assay on Chenopodium album is recorded as 5 (Level 5: growth control rate is above 85%). Also, the “Weeding effect, activity level (growth control rate), Amaranthus retroflexus L.” value (“Weeding effect … Amaranthus retroflexus L.” below) in assay [1] is reported as 5 (Level 5: growth control rate is above 85%). Moreover, the “Weeding effect, activity level (growth control rate), Abutilon theophrasti” value (“Weeding effect … Abutilon theophrasti” below) with Abutilon theophrasti is 5 (Level 5: growth control rate is above 85%). Moreover, the “Weeding effect, activity level (growth control rate), Descurainia sophia” value (shortened to “Weeding effect … Descurainia sophia”) in the assay with Descurainia sophia is reported as 5 (Level 5: growth control rate is above 85%).
As for `Cn1nnnc1NC(=O)c1ccnc(-c2ccc(F)c3ccccc23)c1Cl` [Compound 1-113], the “Weeding effect … Chenopodium album” value in the assay with Chenopodium album was 5 (Level 5: growth control rate is above 85%). The “Weeding effect … Amaranthus retroflexus L.” value in assay [1] is recorded as 5 (Level 5: growth control rate is above 85%). For the same molecule, the “Weeding effect … Abutilon theophrasti” value in the assay on Abutilon theophrasti was 5 (Level 5: growth control rate is above 85%). In the assay with Descurainia sophia, the “Weeding effect … Descurainia sophia” value is 5 (Level 5: growth control rate is above 85%).
In the case of `Cn1nnnc1NC(=O)c1ccnc(C2CCCCC2)c1Cl` [Compound 1-4], the “Weeding effect … Chenopodium album” value in the assay on Chenopodium album is reported as 5 (Level 5: growth control rate is above 85%). Also, the “Weeding effect … Amaranthus retroflexus L.” value in assay [1] is reported as 5 (Level 5: growth control rate is above 85%). Further, the “Weeding effect … Abutilon theophrasti” value in the assay with Abutilon theophrasti is 5 (Level 5: growth control rate is above 85%). For the same molecule, the “Weeding effect … Descurainia sophia” value in the assay on Descurainia sophia was 5 (Level 5: growth control rate is above 85%).
For the molecule `Cn1nnnc1NC(=O)c1ccnc(-c2ccc(F)cc2Cl)c1Cl` [Compound 1-94], the “Weeding effect … Chenopodium album” value with Chenopodium album is 5 (Level 5: growth control rate is above 85%). Further, the “Weeding effect … Amaranthus retroflexus L.” value in assay [1] is reported as 5 (Level 5: growth control rate is above 85%). In addition, the “Weeding effect … Abutilon theophrasti” value in the assay on Abutilon theophrasti is 5 (Level 5: growth control rate is above 85%). Further, in the assay on Descurainia sophia, the “Weeding effect … Descurainia sophia” value was 5 (Level 5: growth control rate is above 85%).
As for `Cn1nnnc1NC(=O)c1ccnc(-c2ccc3c(c2)sc2ccccc23)c1Cl` [Compound 1-118], the “Weeding effect … Chenopodium album” value in the assay on Chenopodium album is given as 5 (Level 5: growth control rate is above 85%). In addition, the “Weeding effect … Amaranthus retroflexus L.” value in assay [1] was 5 (Level 5: growth control rate is above 85%). In the assay with Abutilon theophrasti, the “Weeding effect … Abutilon theophrasti” value is 5 (Level 5: growth control rate is above 85%). Besides, the “Weeding effect … Descurainia sophia” value with Descurainia sophia is 5 (Level 5: growth control rate is above 85%).
On to `Cn1nnnc1NC(=O)c1ccnc(-c2ccc(F)cc2)c1C=C(F)F` [Compound 1-222], for which, in the assay with Chenopodium album, the “Weeding effect … Chenopodium album” value is 5 (Level 5: growth control rate is above 85%). Moreover, the “Weeding effect … Amaranthus retroflexus L.” value in assay [1] is recorded as 5 (Level 5: growth control rate is above 85%). Further, the “Weeding effect … Abutilon theophrasti” value in the assay on Abutilon theophrasti is on record as 5 (Level 5: growth control rate is above 85%). In addition, the “Weeding effect … Descurainia sophia” value with Descurainia sophia is 5 (Level 5: growth control rate is above 85%).
For `COc1ccccc1-c1nccc(C(=O)Nc2nnnn2C)c1Cl` [Compound 1-28], the “Weeding effect … Chenopodium album” value with Chenopodium album was 5 (Level 5: growth control rate is above 85%). Besides, the “Weeding effect … Amaranthus retroflexus L.” value in assay [1] is recorded as 5 (Level 5: growth control rate is above 85%). For the same molecule, the “Weeding effect … Abutilon theophrasti” value in the assay with Abutilon theophrasti was 5 (Level 5: growth control rate is above 85%). Also, the “Weeding effect … Descurainia sophia” value in the assay with Descurainia sophia is given as 5 (Level 5: growth control rate is above 85%).
`Cn1nnnc1NC(=O)c1ccnc(-c2cccc3c2OC(F)(F)O3)c1Cl` [Compound 1-1972]: in the assay with Chenopodium album, the “Weeding effect … Chenopodium album” value was 5 (Level 5: growth control rate is above 85%). In assay [1], the “Weeding effect … Amaranthus retroflexus L.” value is reported as 5 (Level 5: growth control rate is above 85%). In addition, the “Weeding effect … Abutilon theophrasti” value in the assay with Abutilon theophrasti is listed as 5 (Level 5: growth control rate is above 85%). Besides, in the assay with Descurainia sophia, the “Weeding effect … Descurainia sophia” value was 5 (Level 5: growth control rate is above 85%).
Consider `Cn1nnnc1NC(=O)c1ccnc(-c2ccc(C#N)cc2)c1F` [Compound 1-2016], for which the “Weeding effect … Chenopodium album” value with Chenopodium album was 5 (Level 5: growth control rate is above 85%). In assay [1], the “Weeding effect … Amaranthus retroflexus L.” value is 5 (Level 5: growth control rate is above 85%). Moreover, in the assay with Abutilon theophrasti, the “Weeding effect … Abutilon theophrasti” value is 5 (Level 5: growth control rate is above 85%). In addition, the “Weeding effect … Descurainia sophia” value in the assay with Descurainia sophia is 5 (Level 5: growth control rate is above 85%).
With `Cn1nnnc1NC(=O)c1ccnc(-c2ccc(C=O)o2)c1Cl` [Compound 1-185], the “Weeding effect … Chenopodium album” value in the assay on Chenopodium album is given as 5 (Level 5: growth control rate is above 85%). Besides, in assay [1], the “Weeding effect … Amaranthus retroflexus L.” value is on record as 5 (Level 5: growth control rate is above 85%). The “Weeding effect … Abutilon theophrasti” value in the assay with Abutilon theophrasti is 5 (Level 5: growth control rate is above 85%). The “Weeding effect … Descurainia sophia” value in the assay on Descurainia sophia was 5 (Level 5: growth control rate is above 85%).
Consider `Cn1nnnc1NC(=O)c1ccnc(-c2ccc(C(=O)O)cc2)c1Cl` [Compound 1-39], for which, in the assay on Chenopodium album, the “Weeding effect … Chenopodium album” value is recorded as 5 (Level 5: growth control rate is above 85%). In assay [1], the “Weeding effect … Amaranthus retroflexus L.” value is given as 5 (Level 5: growth control rate is above 85%). In the assay with Abutilon theophrasti, the “Weeding effect … Abutilon theophrasti” value is on record as 5 (Level 5: growth control rate is above 85%). Also, the “Weeding effect … Descurainia sophia” value in the assay with Descurainia sophia is 5 (Level 5: growth control rate is above 85%).
As for `Cn1ccnc1-c1nccc(C(=O)Nc2nnnn2C)c1Cl` [Compound 1-233], in the assay with Chenopodium album, the “Weeding effect … Chenopodium album” value is 5 (Level 5: growth control rate is above 85%). Moreover, the “Weeding effect … Amaranthus retroflexus L.” value in assay [1] was 5 (Level 5: growth control rate is above 85%). Further, the “Weeding effect … Abutilon theophrasti” value in the assay on Abutilon theophrasti is reported as 5 (Level 5: growth control rate is above 85%). The “Weeding effect … Descurainia sophia” value in the assay with Descurainia sophia is 5 (Level 5: growth control rate is above 85%).
For the molecule `CCCS(=O)(=O)c1nccc(C(=O)Nc2nnnn2C)c1Cl` [Compound 1-2071], in the assay on Chenopodium album, the “Weeding effect … Chenopodium album” value was 5 (Level 5: growth control rate is above 85%). Also, the “Weeding effect … Amaranthus retroflexus L.” value in assay [1] is given as 5 (Level 5: growth control rate is above 85%). Besides, the “Weeding effect … Abutilon theophrasti” value in the assay with Abutilon theophrasti is on record as 5 (Level 5: growth control rate is above 85%). Besides, the “Weeding effect … Descurainia sophia” value in the assay on Descurainia sophia was 5 (Level 5: growth control rate is above 85%).
Turning to `Cn1nnnc1NC(=O)c1ccnc(-c2cccc(C(F)(F)F)c2)c1Cl` [Compound 1-26], the “Weeding effect … Chenopodium album” value in the assay on Chenopodium album is 5 (Level 5: growth control rate is above 85%). The “Weeding effect … Amaranthus retroflexus L.” value in assay [1] is on record as 5 (Level 5: growth control rate is above 85%). Moreover, in the assay on Abutilon theophrasti, the “Weeding effect … Abutilon theophrasti” value was 5 (Level 5: growth control rate is above 85%). Also, the “Weeding effect … Descurainia sophia” value in the assay on Descurainia sophia was 5 (Level 5: growth control rate is above 85%).
In the case of `Cn1nnnc1NC(=O)c1ccnc(-n2cc(F)cn2)c1Cl` [Compound 1-166], the “Weeding effect … Chenopodium album” value in the assay with Chenopodium album is given as 5 (Level 5: growth control rate is above 85%). Also, the “Weeding effect … Amaranthus retroflexus L.” value in assay [1] is 5 (Level 5: growth control rate is above 85%). Moreover, the “Weeding effect … Abutilon theophrasti” value with Abutilon theophrasti is given as 5 (Level 5: growth control rate is above 85%). The “Weeding effect … Descurainia sophia” value with Descurainia sophia is 5 (Level 5: growth control rate is above 85%).
For `Cn1nnnc1NC(=O)c1ccnc(-c2ccc(F)cc2)c1C1CC1` [Compound 1-221], the “Weeding effect … Chenopodium album” value in the assay on Chenopodium album was 5 (Level 5: growth control rate is above 85%). In assay [1], the “Weeding effect … Amaranthus retroflexus L.” value is 5 (Level 5: growth control rate is above 85%). Also, in the assay with Abutilon theophrasti, the “Weeding effect … Abutilon theophrasti” value was 5 (Level 5: growth control rate is above 85%). Besides, in the assay with Descurainia sophia, the “Weeding effect … Descurainia sophia” value is given as 5 (Level 5: growth control rate is above 85%).
`Cn1nnnc1NC(=O)c1ccnc(-c2cccc(Br)c2)c1Cl` [Compound 1-21]: the “Weeding effect … Chenopodium album” value with Chenopodium album was 5 (Level 5: growth control rate is above 85%). In assay [1], the “Weeding effect … Amaranthus retroflexus L.” value was 5 (Level 5: growth control rate is above 85%). For the same molecule, the “Weeding effect … Abutilon theophrasti” value in the assay with Abutilon theophrasti was 5 (Level 5: growth control rate is above 85%). The “Weeding effect … Descurainia sophia” value with Descurainia sophia is 5 (Level 5: growth control rate is above 85%).
For the molecule `Cn1nnnc1NC(=O)c1ccnc(-c2ccc(F)cc2)c1-c1ccccc1` [Compound 1-199], the “Weeding effect … Chenopodium album” value in the assay with Chenopodium album is given as 5 (Level 5: growth control rate is above 85%). Moreover, the “Weeding effect … Amaranthus retroflexus L.” value in assay [1] is listed as 5 (Level 5: growth control rate is above 85%). The “Weeding effect … Abutilon theophrasti” value in the assay on Abutilon theophrasti is listed as 5 (Level 5: growth control rate is above 85%). Also, the “Weeding effect … Descurainia sophia” value in the assay on Descurainia sophia is given as 5 (Level 5: growth control rate is above 85%).
Take `CCc1ccc(-c2ccc(-c3nccc(C(=O)Nc4nnnn4C)c3Cl)cc2)cc1` [Compound 1-54]: the “Weeding effect … Chenopodium album” value in the assay on Chenopodium album is 5 (Level 5: growth control rate is above 85%). Further, the “Weeding effect … Amaranthus retroflexus L.” value in assay [1] is 5 (Level 5: growth control rate is above 85%). Moreover, the “Weeding effect … Abutilon theophrasti” value in the assay with Abutilon theophrasti is reported as 5 (Level 5: growth control rate is above 85%). In addition, in the assay on Descurainia sophia, the “Weeding effect … Descurainia sophia” value is 5 (Level 5: growth control rate is above 85%).
